# Test system: β-catenin-TCF-mediated reporter transcription activity in Colo 205 cells
# Assay: Colo 205 reporter assay (TCF/LEF luciferase)
# Type: cell-based
# Conditions: Colo 205 TCF/LEF luciferase reporter, five hours after addition of compound; read-out: TCF reporter Colo205 IC50
# Description: The compounds of the invention described herein were screened using the assay procedure for β-catenin-TCF-mediated reporter transcription activity described below.
# Reporter cell lines were generated by stably transfecting cells of cancer cell lines (e.g., colon cancer) with a plasmid reporter construct (From SABiosciences, a QIAGEN company) that includes TCF/LEF promoter driving expression of the firefly luciferase gene. TCF/LEF reporter constructs were made in which TCF/LEF promoter, a promoter with optimal number of TCF/LEF binding sites designed by SABiosceinces, was linked upstream of the firefly luciferase gene. This construct could also include a puromycin resistance gene as a selectable marker. This construct could also be used to stably transfect Colo 205 cells, a colon cancer cell line having a mutated APC gene that causes a constitutively active β-catenin. A control cell line was generated using another plasmid construct containing the luciferase gene under the control of a CMV basal promoter which is not activated by p-catenin.
# Colo 205 Cultured cells with a stably transfected reporter construct were plated at approximately 10,000 cells per well into 384 well multi-well plates for twenty four hours. The testing compounds were then added to the wells in 2-fold serial dilutions using a twenty micromolar top concentration. A series of control wells for each cell type received only compound solvent. Five hours after the addition of compound, reporter activity for luciferase was assayed, by addition of the SteadyGlo luminescence reagent (Promega). The reporter luminescence activity was measured using Pherastar plate reader (BMG Labtech). Readings were normalized to DMSO only treated cells, and normalized activities were then used in the IC50 calculations. The Colo 205 reporter assay data are summarized in Table 45: A<0.3 μM; 0.3 μM≤B<1.0 μM; 1.0 μM≤C<5.0 μM; D≥5.0 μM
# Colo 205 reporter assay data has also been obtained for certain R-isomers of Formula (I) wherein R^4 is —H or -D, and wherein the carbon to which R^3 and R^4 are attached (C2 carbon of Formula (X)) has R stereochemistry; such epimeric compounds are represented using the suffix “B” attached to the Compound described herein having the S stereochemistry at the carbon to which R^3 and R^4 are attached: […]
row,IC50,Structure (SMILES)
1,300 to 1000 nM,"Cc1nc(NCc2cnn(Cc3ccc(C(F)(F)F)nc3)c2)nc2c1NC(=O)C1(CCOC1)N2C (centres unmarked) [Compound 662, 4′,8′-dimethyl-2′-(((1-((6-(trifluoromethyl)pyridin-3-yl)methyl)-1H-pyrazol-4-yl)methyl)amino)-4,5,5′,8′-tetrahydro-2H,6′H-spiro[furan-3,7′-pteridin]-6′-one]"

# Same assay, conditions: Homo sapiens, COLO 205, 5 h, Colo 205 TCF/LEF luciferase reporter, five hours after addition of compound; read-out: TCF reporter Colo205 IC50
row,IC50,Structure (SMILES)
1,300 to 1000 nM,"Cc1nc(N[C@H]2C[C@@H](Sc3ccc(C(F)(F)F)cc3)C2)nc2c1N(C)C(=O)[C@H](C)N2C [Compound 322, (7S)-4,5,7,8-tetramethyl-2-((cis-3-((4-(trifluoromethyl)phenyl)thio)cyclobutyl)amino)-7,8-dihydropteridin-6(5H)-one]"
2,300 to 1000 nM,"Cc1nc(NCc2cnn([C@@H]3CCN(C4CCC(F)(F)CC4)C3)c2)nc2c1NC(=O)[C@H](C)N2C [Compound 127, (7S)-2-(((1-((R)-1-(4,4-difluorocyclohexyl)pyrrolidin-3-yl)-1H-pyrazol-4-yl)methyl)amino)-4,7,8-trimethyl-7,8-dihydropteridin-6(5H)-one]"
3,< 300 nM,"Cc1nc(NCc2cnn([C@H]3CCN(c4ccc(F)cc4)C3)c2)nc2c1NC(=O)[C@H](C)N2C [Compound 171, (7S)-2-(((1-((S)-1-(4-fluorophenyl)pyrrolidin-3-yl)-1H-pyrazol-4-yl)methyl)amino)-4,7,8-trimethyl-7,8-dihydropteridin-6(5H)-one]"
4,< 300 nM,"Cc1nc(NCc2cnn(Cc3ccncc3C(F)(F)F)c2)nc2c1NC(=O)[C@H](C)N2C [Compound 187, (7S)-4,7,8-trimethyl-2-(((1-((3-(trifluoromethyl)pyridin-4-yl)methyl)-1H-pyrazol-4-yl)methyl)amino)-7,8-dihydropteridin-6(5H)-one]"
5,≥ 5000 nM,"COc1ccc(Cn2ccc(CNc3nc(C)c4c(n3)N(C)[C@@H](C)C(=O)N4)n2)cc1OC [Compound 76, (7S)-2-(((1-(3,4-dimethoxybenzyl)-1H-pyrazol-3-yl)methyl)amino)-4,7,8-trimethyl-7,8-dihydropteridin-6(5H)-one]"
6,< 300 nM,"COC1(C2C(=O)Nc3c(C)nc(N[C@H]4C[C@H](Oc5ccc(C(F)(F)F)nc5)C4)nc3N2C)CCC1 (relative stereo) [Compound 671, 7-(1-methoxycyclobutyl)-4,8-dimethyl-2-((trans-3-((6-(trifluoromethyl)pyridin-3-yl)oxy)cyclobutyl)amino)-7,8-dihydropteridin-6(5H)-one]"
7,≥ 5000 nM,"Cc1nc(NC2CN(C(=O)[C@H]3CCCO3)C2)nc2c1NC(=O)[C@H](C(C)C)N2C [Compound 636, (S)-7-isopropyl-4,8-dimethyl-2-((1-((R)-tetrahydrofuran-2-carbonyl)azetidin-3-yl)amino)-7,8-dihydropteridin-6(5H)-one]"
8,< 300 nM,"Cc1nc(NCc2cnn(Cc3ccc(C(F)(F)F)nc3)c2)nc2c1NC(=O)C(C)(C)N2C [Compound 238, 4,7,7,8-Tetramethyl-2-(((1-((6-(trifluoromethyl)pyridin-3-yl)methyl)-1H-pyrazol-4-yl)methyl)amino)-7,8-dihydropteridin-6(5H)-one]"
9,≥ 5000 nM,"C[C@H]1C(=O)Nc2cnc(NCc3cnn(Cc4ncc(F)cn4)c3)nc2N1C [Compound 165, (7S)-2-(((1-((5-fluoropyrimidin-2-yl)methyl)-1H-pyrazol-4-yl)methyl)amino)-7,8-dimethyl-7,8-dihydropteridin-6(5H)-one]"
10,≥ 5000 nM,"Cc1nc(N[C@H]2C[C@@H](N(C)c3cnc(C(F)(F)F)cn3)C2)nc2c1NC(=O)[C@H](C)N2C [Compound 653, (S)-4,7,8-trimethyl-2-((cis-3-(methyl(5-(trifluoromethyl)pyrazin-2-yl)amino)cyclobutyl)amino)-7,8-dihydropteridin-6(5H)-one]"
11,< 300 nM,"Cc1nc(N[C@H]2C[C@@H](Cn3nccc3C(F)(F)F)C2)nc2c1NC(=O)[C@H](C(C)C)N2C [Compound 512, (S)-7-isopropyl-4,8-dimethyl-2-((cis-3-((5-(trifluoromethyl)-1H-pyrazol-1-yl)methyl)cyclobutyl)amino)-7,8-dihydropteridin-6(5H)-one]"
12,300 to 1000 nM,"Cc1nc(N[C@H]2C[C@H](Oc3ccc(C(F)(F)F)nc3)C2)nc2c1NC(=O)C1(CCOC1)N2C (relative stereo) [Compound 689, 4′,8′-dimethyl-2′-((trans-3-((6-(trifluoromethyl)pyridin-3-yl)oxy)cyclobutyl)amino)-4,5,5′,8′-tetrahydro-2H,6′H-spiro[furan-3,7′-pteridin]-6′-one]"
13,1000 to 5000 nM,"Cc1nc(N[C@H]2C[C@H](NC(=O)Cn3ccc(C(F)(F)F)n3)C2)nc2c1NC(=O)[C@H](C(C)C)N2C [Compound 554, N-(trans-3-(((S)-7-isopropyl-4,8-dimethyl-6-oxo-5,6,7,8-tetrahydropteridin-2-yl)amino)cyclobutyl)-2-(3-(trifluoromethyl)-1H-pyrazol-1-yl)acetamide]"
14,≥ 5000 nM,"Cc1nc(NC2CN(C(=O)c3cocn3)C2)nc2c1NC(=O)[C@H](C(C)C)N2C [Compound 605, (S)-7-isopropyl-4,8-dimethyl-2-((1-(oxazole-4-carbonyl)azetidin-3-yl)amino)-7,8-dihydropteridin-6(5H)-one]"
15,< 300 nM,"Cc1nc(NCc2cnn(Cc3cncc(F)c3)c2)nc2c1NC(=O)[C@H](C)N2C [Compound 208, (7S)-2-(((1-((5-fluoropyridin-3-yl)methyl)-1H-pyrazol-4-yl)methyl)amino)-4,7,8-trimethyl-7,8-dihydropteridin-6(5H)-one]"
16,300 to 1000 nM,"Cc1nc(N[C@H]2C[C@H](Sc3cc(F)c(F)c(F)c3)C2)nc2c1N(C)C(=O)[C@H](C)N2C [Compound 330, (7S)-4,5,7,8-tetramethyl-2-((trans-3-((3,4,5-trifluorophenyl)thio)-cyclobutyl)amino)-7,8-dihydropteridin-6(5H)-one]"
17,≥ 5000 nM,"Cc1nc(N[C@H]2C[C@H](Oc3cc(F)c(O)c(F)c3)C2)nc2c1NC(=O)[C@H](C)N2C [Compound 349, (7S)-2-((trans-3-(3,5-difluoro-4-hydroxyphenoxy)cyclobutyl)amino)-4,7,8-trimethyl-7,8-dihydropteridin-6(5H)-one]"
18,< 300 nM,"Cc1nc(NCc2cnn(Cc3ccc(F)cc3)c2)nc2c1NC(=O)[C@H](C(C)C)N2C [Compound 479, (S)-2-(((1-(4-fluorobenzyl)-1H-pyrazol-4-yl)methyl)amino)-7-isopropyl-4,8-dimethyl-7,8-dihydropteridin-6(5H)-one]"
19,< 300 nM,"Cc1nc(NCc2cnn(Cc3ccc(OC(F)F)nc3)c2)nc2c1NC(=O)[C@H](C(C)C)N2C [Compound 422, (7S)-2-(((1-((6-(difluoromethoxy)pyridin-3-yl)methyl)-1H-pyrazol-4-yl)methyl)amino)-7-isopropyl-4,8-dimethyl-7,8-dihydropteridin-6(5H)-one]"
20,< 300 nM,"Cc1nc(NCc2cnn(Cc3ccc(C#N)cc3)c2)nc2c1NC(=O)[C@H](C)N2C [Compound 55, (7S)-4-((4-(((4,7,8-trimethyl-6-oxo-5,6,7,8-tetrahydropteridin-2-yl)amino)methyl)-1H-pyrazol-1-yl)methyl)benzonitrile]"
21,≥ 5000 nM,"Cc1nc(NC2CN(C(=O)c3cnon3)C2)nc2c1NC(=O)[C@H](C(C)C)N2C [Compound 617, (S)-2-((1-(1,2,5-oxadiazole-3-carbonyl)azetidin-3-yl)amino)-7-isopropyl-4,8-dimethyl-7,8-dihydropteridin-6(5H)-one]"
22,< 300 nM,"COc1cc(OC[C@H]2C[C@@H](Nc3nc(C)c4c(n3)N(C)[C@@H](C)C(=O)N4)C2)cc(OC)c1OC [Compound 280, (7S)-4,7,8-trimethyl-2-((cis-3-((3,4,5-trimethoxyphenoxy)methyl)-cyclobutyl)amino)-7,8-dihydropteridin-6(5H)-one]"
23,< 300 nM,"Cc1nc(N[C@H]2C[C@H](Oc3ccc(F)cc3)C2)nc2c1NC(=O)[C@H](C)N2C [Compound 242, (7S)-2-((trans 3-(4-fluorophenoxy)cyclobutyl)amino)-4,7,8-trimethyl-7,8-dihydropteridin-6(5H)-one]"
24,< 300 nM,"C#CC[C@H]1C(=O)N(C)c2cnc(NCc3cnn(Cc4cc(F)c(F)c(F)c4)c3)nc2N1C [Compound 25, (7S)-5,8-dimethyl-7-(prop-2-yn-1-yl)-2-(((1-(3,4,5-trifluorobenzyl)-1H-pyrazol-4-yl)methyl)amino)-7,8-dihydropteridin-6(5H)-one]"

# Same assay, conditions: Homo sapiens, COLO 205, 5 h, R-isomer at C2 (corresponding to C2 S-isomer); Colo 205 TCF/LEF luciferase reporter, 5 h; read-out: TCF reporter Colo205 IC50
row,IC50,Structure (SMILES)
1,300 to 1000 nM,C[C@@H]1C(=O)Nc2cnc(NCc3cnn(Cc4cc(F)c(F)c(F)c4)c3)nc2N1C [Compound I-896]
